# Tests used:
# Pseudomonas aeruginosa [1] = test: Anti-virulence activity against Pseudomonas aeruginosa PAO1-L assessed as reduction in pyocyanin production at 10 uM incubated for 24 hrs by absorbance based analysis relative to control; format: functional; design: scale not given: the % may be the effect or the level left
# Pseudomonas aeruginosa [2] = test: Antibiofilm activity against Pseudomonas aeruginosa PAO1 assessed as inhibition of biofilm formation at 32 ug/ml incubated for 8 hrs by crystal violet staining based assay relative to control; format: functional; design: scale not given: the % may be the effect or the level left; conditions: dose 32 µg/ml
# Pseudomonas aeruginosa [3] = test: Antibacterial activity against Pseudomonas aeruginosa ATCC 15442 assessed as reduction in bacterial cell growth incubated for 24 hrs by two fold serial microdilution method; format: functional
# Bacillus subtilis = test: Antibacterial activity against Bacillus subtilis; format: functional
# Bacillus pumilus = test: Antibacterial activity against Bacillus pumilus; format: functional
# Staphylococcus aureus = test: Antibacterial activity against Methicillin-sensitive Staphylococcus aureus; format: functional
# Escherichia coli = test: Antibacterial activity against Escherichia coli; format: functional
# Pseudomonas aeruginosa [4] = test: Antibacterial activity against Pseudomonas aeruginosa; format: functional
# Pseudomonas aeruginosa [5] = test: Anti-virulence effect in Pseudomonas aeruginosa PAO1 assessed as inhibition of rhamnolipid production at 10 uM relative to control; format: functional; design: scale not given: the % may be the effect or the level left
# Pseudomonas aeruginosa [6] = test: Antibacterial activity against Pseudomonas aeruginosa ATCC 27853 assessed as bacterial growth inhibition by agar diffusion assay; format: functional
# [7] = biological target: T1, Transcriptional activator protein LasR (Pseudomonas aeruginosa (strain ATCC 15692 / PAO1 / 1C / PRS 101 / LMG12228)) (UniProt P25084); test: Inhibition of LasR-mediated quorum sensing system in Pseudomonas aeruginosa PAO1 at 128 ug/ml relative to control; conditions: dose 128.0 µg/ml
# T1 sequence (whole entry): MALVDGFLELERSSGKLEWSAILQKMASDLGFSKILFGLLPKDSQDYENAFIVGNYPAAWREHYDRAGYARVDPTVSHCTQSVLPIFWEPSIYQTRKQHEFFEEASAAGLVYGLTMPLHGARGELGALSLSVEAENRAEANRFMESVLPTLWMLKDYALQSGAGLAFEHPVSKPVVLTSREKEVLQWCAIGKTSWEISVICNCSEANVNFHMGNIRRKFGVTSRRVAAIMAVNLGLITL
# [8] = Inhibition of quorum sensing system in Pseudomonas aeruginosa PAO1 expressing lasB-gfp
compound,measurement,setting,value
CCCCCCC1=NC(Cn2cnc3cc(Cl)ccc3c2=O)CS1 (centres undefined),Activity,Pseudomonas aeruginosa [1],46%
COc1ccc(C[S+]([O-])c2nnc(-c3ccccc3)o2)cc1 (centres undefined),Activity,Pseudomonas aeruginosa [2],21.94%
Clc1ccc(SSc2nc3ccccc3s2)cc1,Activity,Pseudomonas aeruginosa [2],40.6%
NCCCCCCCCCCCCNc1ccnc2cc(C(F)(F)F)ccc12,MIC,Pseudomonas aeruginosa [3],> 2 µM
C=CCSSc1nc2ccc(Cl)cc2c(=O)n1-c1ccccc1,Activity,Pseudomonas aeruginosa [1],94%
CCCCSSc1nc2ccc(Cl)cc2c(=O)n1-c1ccccc1,Activity,Pseudomonas aeruginosa [1],94%
[O-][S+](Cc1ccc(F)cc1)c1nnc(-c2ccccc2)o1 (centres undefined),Activity,Pseudomonas aeruginosa [2],23.17%
Clc1ccc2c(NCCCCCCCCNCCc3ccccc3)ccnc2c1,MIC,Pseudomonas aeruginosa [3],> 2 µM
O=C(CCCCCOc1cccc(F)c1)NN1C(=O)CN(c2ccccc2O)C1=O,MIC,Bacillus subtilis,> 512 µg/mL
same,MIC,Bacillus pumilus,> 512 µg/mL
same,MIC,Staphylococcus aureus,> 512 µg/mL
same,MIC,Escherichia coli,> 512 µg/mL
same,MIC,Pseudomonas aeruginosa [4],> 512 µg/mL
same,Activity,Pseudomonas aeruginosa [5],2.76%
O=C(CSc1nc2ccccc2s1)c1ccc(Cl)c(Cl)c1,MIC,Pseudomonas aeruginosa [6],> 128 µg/mL
O=[N+]([O-])c1ccc(C[S+]([O-])c2nnc(-c3ccccc3)o2)cc1 (centres undefined),Activity,Pseudomonas aeruginosa [2],40.6%
O=C(CCCCCOc1ccc(C(F)(F)F)cc1)NNC(=O)Cn1c(=O)oc2ccccc21,Activity,Pseudomonas aeruginosa [5],2.53%
O=C(Oc1cccc([N+](=O)[O-])c1)C(=O)N1CCOCC1,inhibition,[7],50.2%
O=C(CSC1=NC2C=C([N+](=O)[O-])C=CC2=N1)Cc1ccc(Br)cc1 (centres undefined),MIC,Pseudomonas aeruginosa [6],> 512 µg/mL
COc1cccc(C[S+]([O-])c2nnn(-c3ccccc3)n2)c1 (centres undefined),Activity,Pseudomonas aeruginosa [2],1.64%
CN(C)CCCCCCCCNc1ccnc2cc(Cl)ccc12,MIC,Pseudomonas aeruginosa [3],> 2 µM
N#CCc1ccc(OCC(O)Cn2cnc3ccc(Cl)cc3c2=O)cc1 (centres undefined),IC50,[8],3200 nM
[N-]=[N+]=Nc1ccc(CNCCCCCCCCNc2ccnc3cc(Cl)ccc23)cc1,MIC,Pseudomonas aeruginosa [3],> 2 µM
COc1cc(C(=O)CSc2ccc3ccccc3n2)ccc1O,MIC,Pseudomonas aeruginosa [6],> 128 µg/mL
N#CCc1ccc(NCC(O)Cn2cnc3ccc(Cl)cc3c2=O)cc1 (centres undefined),IC50,[8],3200 nM
CC(C)NCCCCCCCCNc1ccnc2cc(Cl)ccc12,MIC,Pseudomonas aeruginosa [3],> 2 µM
O=c1c2ccc(Cl)cc2ncn1CC(O)COc1ccccc1 (centres undefined),IC50,[8],600 nM
CCCCCCCCSSc1nc2cccc(Cl)c2c(=O)n1-c1ccccc1,Activity,Pseudomonas aeruginosa [1],94%
Cc1ccc(OCCCCCC(=O)NNC(=O)Cn2c(=O)oc3ccccc32)cc1,Activity,Pseudomonas aeruginosa [5],2.53%
O=C(CN1CCSCC1)Oc1cccc([N+](=O)[O-])c1,inhibition,[7],90.2%
CCCCCCSSc1nc2ccc(Cl)cc2c(=O)n1-c1ccccc1,Activity,Pseudomonas aeruginosa [1],94%
Fc1ccc(CNCCCCCCCCNc2ccnc3cc(Cl)ccc23)cc1,MIC,Pseudomonas aeruginosa [3],> 2 µM
O=C(CSc1ccc2ccccc2n1)c1ccc2c(c1)OCCO2,MIC,Pseudomonas aeruginosa [6],> 128 µg/mL
[O-][S+](Cc1ccccc1Cl)c1nnn(-c2ccccc2)n1 (centres undefined),Activity,Pseudomonas aeruginosa [2],1.64%
[O-][S+](Cc1ccc(C(F)(F)F)cc1)c1nnc(-c2ccccc2)o1 (centres undefined),Activity,Pseudomonas aeruginosa [2],21.94%
CCCCSSc1nc2ccccc2c(=O)n1-c1ccccc1,Activity,Pseudomonas aeruginosa [1],94%
O=c1c2cc(Br)ccc2ncn1CC(O)COc1ccccc1 (centres undefined),IC50,[8],800 nM
[O-][S+](Cc1ccc(Cl)cc1)c1nnn(-c2ccccc2)n1 (centres undefined),Activity,Pseudomonas aeruginosa [2],1.64%
CCCCSSc1nc2ccccc2c(=O)n1C1CC1,Activity,Pseudomonas aeruginosa [1],94%
Fc1cccc(CNCCCCCCCCNc2ccnc3cc(Cl)ccc23)c1,MIC,Pseudomonas aeruginosa [3],> 2 µM
[O-][S+](Cc1ccccc1)c1nnc(-c2ccccc2)o1 (centres undefined),Activity,Pseudomonas aeruginosa [2],40.6%
O=C(CN1CCOCC1)Oc1ccc([N+](=O)[O-])cc1,inhibition,[7],82.3%
Clc1cccc(CNCCCCCCCCNc2ccnc3cc(Cl)ccc23)c1,MIC,Pseudomonas aeruginosa [3],> 2 µM
Cc1ccc(C[S+]([O-])c2nnc(-c3ccccc3)o2)cc1 (centres undefined),Activity,Pseudomonas aeruginosa [2],40.6%
[O-][S+](Cc1ccc2c(O)cccc2c1)c1nnn(-c2ccccc2)n1 (centres undefined),Activity,Pseudomonas aeruginosa [2],1.64%
O=C(CC1CCC(F)CC1)Oc1cccc([N+](=O)[O-])c1 (centres undefined),inhibition,[7],50.2%
[O-][S+](Cc1ccc(Br)cc1)c1nnc(-c2ccccc2)o1 (centres undefined),Activity,Pseudomonas aeruginosa [2],21.94%
O=c1c2cccc(Cl)c2ncn1CC(O)COc1ccccc1 (centres undefined),IC50,[8],600 nM
C=CCSSc1nc2ccccc2c(=O)n1-c1ccccc1,Activity,Pseudomonas aeruginosa [1],94%
CCCCCCSSc1nc2ccccc2c(=O)n1C1CC1,Activity,Pseudomonas aeruginosa [1],94%
O=c1c2cc(Cl)cc(Cl)c2ncn1CC(O)COc1ccccc1 (centres undefined),IC50,[8],600 nM
O=c1c2c(Cl)cccc2ncn1CC(O)COc1ccccc1 (centres undefined),IC50,[8],600 nM
COc1ccccc1C(=O)CSc1ccc2ccccc2n1,MIC,Pseudomonas aeruginosa [6],> 128 µg/mL
CCCCCCCCSSc1nc2ccc(Cl)cc2c(=O)n1-c1ccccc1,Activity,Pseudomonas aeruginosa [1],94%
